The text below walks through data of patent US20160136229A1, “MATERIALS FOR POSITIVE CATHEPSIN B MODULATION AND METHODS OF USE FOR TREATING MILD COGNITIVE IMPAIRMENT (MCI), EARLY DEMENTIA, A-SYNUCLEINOPATHY, TRAUMATIC BRAIN INJURY, CARDIOMYOPATHY, EYE DISEASE AND SKIN DAMAGE” (University of North Carolina at Pembroke, priority 2013, published 2016).

The target of assay [1] is T1, active form of cathepsin B (Mus musculus, UniProt P10605).
T1 construct: from tissue; host or cells: brain and CNS regions of mice (PADK-treated mice, A53T transgenic and wild-type mice, C57BL/6 mice)
The assay can be described thus: Active cathepsin B immunoblot in CNS regions of A53T α-synuclein transgenic mice. Conditions: i.p., 18 mg/kg/day. It counts as in vivo. On the procedure:
FIG. 4. Enhancing lysosome efficiency with the cathepsin B modulator PADK leads to reductions of multiple types of proteinopathy-related accumulation events. […] Age-matched wild-type mice (wt) and 9-10-month mutant human APP mice, a model of early dementia, treated with or without PADK were assessed for the 4-kDa Δβ peptide, the active form of cathepsin B (act CB), and other proteins in hippocampal samples (C). Similar treatment groups used another APP mouse model at 20-22 months of age to measure clearance of APP carboxyterminal fragments APP-αCTF and APP-βCTF (D). Rat hippocampal slice cultures from the untreated control group (con) and slices treated with submicromolar Δβ42 (early tauopathy model) in the absence or presence of PADK (5 μM for 4 days) were assessed for phosphorylated tau (pTau) and other proteins (E). For a model of early α-synucleinopathy, human A53T α-synuclein transgenic mice, at 7 months old, were studied with or without PADK treatment and assessed for human α-synuclein (α-syn) in TX-100 extracts of hippocampus and for other proteins in hippocampal homogenates (F). Plotted data (±SEM) were compared to neighboring vehicle groups by unpaired t-tests: *p=0.02, **p<0.01, ***p<0.001. APPswind and APP-PS1 mice are described in Butler et al., (2011), the entire content of which is hereby incorporated herein by reference.
FIG. 6. […]

In a further assay the test system is intracellular Aβ1-42. Kind of assay: Intracellular Aβ1-42 in pyramidal neurons of APPswe/PS1ΔE9 transgenic mice. The conditions noted are these: PADK-treated APPswe/PS1ΔE9 transgenic mice; CA1. In kind it is in vivo, mouse. An excerpt: FIG. 1. Lysosomal modulation increases the cathepsin B content of lysosomes and reduces intracellular Δβ1-42 in the APPswe/PS1ΔE9 transgenic mouse model of Alzheimer's disease. […] Without wishing to be bound by any scientific theory, the latter steps may involve processing/trafficking of active intermediate (intCB) and mature forms (matCB) from early/late endosomes to lysosomes in order to promote protein degradation (A). […] The increase in organellar cathepsin B enzyme (red) in PADK-treated APPswe/PS1ΔE9 transgenic mice (tg) was associated with a decrease in intracellular Δβ1-42 in the CA1 pyramidal neurons (C). Arrows denote co-localization in lysosomes, capturing intact Δβ1-42 before being degraded by cathepsin B. View-field widths: 12 μm. wt, vehicle-treated wild-type mice.
The lysosomal modulator Z-Phe-Ala-diazomethylketone (PADK) is administered to APPswe/PS1ΔE9 transgenic mice. Low-level PADK enhances cathepsin trafficking and maturation, thereby improving the clearance capacity of lysosomes (FIG. 1). It attenuates both PHF-tau and synaptic decline in the hippocampal slice model of protein accumulation (Bendiske and Bahr, 2003; Butler et al., 2005; Bahr, 2009). […] In PADK-treated transgenic mice, the increase in organellar cathepsin B was associated with a decrease in intracellular Aβ1-42 in pyramidal neurons (FIG. 1C).

The target of another assay is cathepsin B (Mus musculus, UniProt P10605). The assay can be described thus: Cathepsin B species immunoblot in heart tissue of A53T mice. It counts as in vivo. Further details: heart tissue was obtained to test for changes in cathepsin B; from tissue; host or cells: mouse heart, wild-type and A53T transgenic (A16). Conditions: A53T mice; i.p., 18 mg/kg/day. On the procedure:
FIG. 8. PADK also enhances cathepsin B species in the heart. The A53T early α-synucleinopathy mouse model was injected daily with vehicle or PADK (i.p., 18 mg/kg/day) to test for changes in heart tissue. […] Positions of molecular weight standards (kDa) are shown on the left side of the immunoblot. (B) In the lower graph, ratios between CB-30 and CB-105 (mean±SEM) provide a good example of the unique PADK effect on cathepsin B species in the heart. **P<0.01 as compared to vehicle-treated A53T mice.
Ratio measures between the 30-kDa form and the 105-kDa species indicate a unique PADK effect on cathepsin B species in the heart (FIG. 8 bar graph).
(In western blotting, separated proteins are transferred to a membrane and probed.)

The subject of another assay is PHF-tau. Conditions: cited from earlier work.
A further assay has as its system GluR1. The assay can be described thus: Immunoblot of postsynaptic marker GluR1 in hippocampal homogenates of Fischer rats. Conditions: 27 mg/kg daily for 9 days; vs vehicle, p=0.0386. In kind it is in vivo, rat. On the procedure: FIG. 3. Lysosomal modulator PADK dramatically up-regulates active cathepsin B levels in middle-aged Fischer rats, a model of MCI. The female rats were injected daily with vehicle (veh) or 27 mg/kg PADK for 9 days. Brain regions were dissected, homogenates prepared, and equal protein aliquots were assessed by immunoblot to label the 30-kDa active form of cathepsin B as well as actin load controls (A). The hippocampal homogenate samples were also stained for the postsynaptic marker GluR1 to assess for synaptic recovery in correspondence to cathepsin B regulation (A, lower blots).
Brains were removed from the Fischer rats after the behavior studies in order to assess cathepsin B and synaptic marker levels. […] Cathepsin B immunoreactivity was increased 4- to 8-fold in hippocampal as well as neocortical homogenates, while non-lysosomal proteins remained unchanged (gel load controls). In addition to the correspondence with improved memory, there is evidence that the lysosomal modulation corresponds with synaptic recovery, assessing the postsynaptic marker GluR1 in hippocampus (FIG. 3A lower blots, and FIG. 3C). Without wishing to be bound by any scientific theory, the results support the hypothesis that lysosomal enhancement offsets the age-related cascade of microtubule destabilization, transport failure, synaptic decline, and cognitive impairment. […]

The mark [2] stands for this setting: low-level PADK, hippocampal slice model of protein accumulation.

T1 sequence (P10605 80-333 limits assumed): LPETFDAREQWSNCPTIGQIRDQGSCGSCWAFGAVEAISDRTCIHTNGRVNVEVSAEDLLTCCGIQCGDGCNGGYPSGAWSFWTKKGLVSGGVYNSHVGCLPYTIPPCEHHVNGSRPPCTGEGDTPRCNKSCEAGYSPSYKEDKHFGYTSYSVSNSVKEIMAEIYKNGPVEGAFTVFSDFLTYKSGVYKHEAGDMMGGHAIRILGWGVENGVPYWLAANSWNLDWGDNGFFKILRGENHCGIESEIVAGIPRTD
Chain of cathepsin B (P10605 80-333): as the sequence (P10605 80-333 limits assumed) above

With `C[C@H](NC(=O)[C@H](Cc1ccccc1)NC(=O)OCc1ccccc1)C(=O)C=[N+]=[N-]` [PADK, N-carbobenzyloxy-L-phenylalanyl-L-alanyl-diazomethylketone], the “active CatB levels increase in brains” value in assay [1] (7-8 months) is reported as 3-6 fold. The “active form of cathepsin B across CNS regions (immunoblot)” value in assay [1] (7 months, p<0.02 vs vehicle-treated tg) is recorded as “robust PADK-mediated increase”. Moreover, the “intracellular Aβ1-42 in pyramidal neurons” value in the assay with intracellular Aβ1-42 was “decrease”. The “active form of cathepsin B (CB-30) in heart” value on cathepsin B is “robust PADK-mediated increase”. Moreover, the “microtubule stability markers, transport function, and synaptic proteins” value with PHF-tau (following PADK-mediated tau clearance) is “recovery”. Moreover, in the assay with PHF-tau (setting [2]), the PHF-tau result is given as “attenuates” and the synaptic decline entry is reported as “attenuates”. For the same compound, the “tau aggregates and tau-related pathology” value with PHF-tau (when CatB activity was increased with PADK) is “Reduction”. In addition, the “GluR1 levels in hippocampus” value with GluR1 is reported as “increased”.
